Results on 29 compounds are retold here after patent US20060014826A1, “Dioxocyclohexane carboxylic acid phenyl amide derivatives for modulating voltage-gated potassium channels and pharmaceutical compositions containing the same” (Wyeth, priority 2004, published 2006).

The target of data set [1] is T1, human Kv1.1/Kvβ1 potassium ion channel complex (Homo sapiens, UniProt Q09470+Q14722).
T1 construct: expressed in transfected cells; host or cells: Xenopus oocytes injected with cRNA
In words: Inhibiting the inactivation of Kv1.1/Kvβ1 potassium ion channel complex, voltage clamp current recordings in Xenopus oocytes. Particulars: relative to control oocytes without test compound, read-out: Percent Increase in Steady State Current (@ concentration shown in parentheses). Type of data set: cell-based. As for the experimental part: Compounds useful in this invention were examined for their ability to inhibit the inactivation of the human Kv1.1/Kvβ1 potassium ion channel complex in vitro using electrophysiological current recordings on inactivating Kv1.1/Kvβ1channels expressed in Xenopus oocytes. The following procedure was used.
Xenopus oocytes were harvested from frogs under general anesthesia using aseptic techniques. Oocytes were treated with 2 mg/ml collagenase for 1-1.5 hr, defolliculated, and injected with 40 nL cRNA (a mixture of hKv1.1 and hKvβ1) produced using standard molecular biological techniques (Sambrook, et al., 1989, Molecular Cloning: A Laboratory Manual). The concentration of hKv1.1/hKvβ1 cRNA varies, but was generally about 50 ng/μL hKv1.1 and […] hkβ1.
Currents were recorded using standard voltage clamp amplifiers at room temperature. Recordings were performed in the bath solution “ND-96” containing 96 mM NaCl, 2 mM KCl, 1 mm CaCl2, 1 mM MgCl2, 10 mM HEPES and […] Gentamycin (pH=7.6). The pipette (electrode) solution generally consisted of 3 mM KCl. Electrodes were made from WPI TW150F-4 borosilicate glass (or equivalent) and typically had resistances of 0.5-1.5 Mohms. The standard current—voltage (IV) pulse protocol consisted of voltage steps from −60 mV to +50 mV, in 10 mV increments for 200 ms, at a frequency of one IV set per 2 minutes. Data were digitized and analyzed by standard software packages.
Test compounds where first dissolved in DMSO to an initial concentration of 1-100 mM. Working dilutions of 1:2000 to 1:500 were made in the bath solution for final concentrations in the micromolar range. The bath solutions containing the test compounds were applied by bath perfusion using gravity or pump-driven flow. A minimum of 2 mL (10 times the bath volume) over 3 minutes were flowed for each compound concentration tested. Data were averaged across at least 3 cells tested for each concentration.
Test compounds were examined for their ability to inhibit the inactivation of the steady state portion of the IV curve.

T1 sequence (Q09470 whole entry): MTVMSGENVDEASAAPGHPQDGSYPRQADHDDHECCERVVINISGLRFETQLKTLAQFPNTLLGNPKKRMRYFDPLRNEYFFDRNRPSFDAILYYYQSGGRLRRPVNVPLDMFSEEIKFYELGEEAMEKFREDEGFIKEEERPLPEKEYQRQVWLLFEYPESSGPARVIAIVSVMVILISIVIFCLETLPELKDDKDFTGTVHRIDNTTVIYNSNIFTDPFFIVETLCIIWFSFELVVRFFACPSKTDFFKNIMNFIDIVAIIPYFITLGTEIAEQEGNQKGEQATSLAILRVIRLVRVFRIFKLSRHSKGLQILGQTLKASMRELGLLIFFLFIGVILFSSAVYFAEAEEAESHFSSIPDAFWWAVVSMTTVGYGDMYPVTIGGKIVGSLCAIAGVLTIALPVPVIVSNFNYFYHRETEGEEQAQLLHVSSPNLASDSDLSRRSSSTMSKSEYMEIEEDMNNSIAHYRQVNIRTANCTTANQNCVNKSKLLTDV
T1 sequence (Q14722 whole entry): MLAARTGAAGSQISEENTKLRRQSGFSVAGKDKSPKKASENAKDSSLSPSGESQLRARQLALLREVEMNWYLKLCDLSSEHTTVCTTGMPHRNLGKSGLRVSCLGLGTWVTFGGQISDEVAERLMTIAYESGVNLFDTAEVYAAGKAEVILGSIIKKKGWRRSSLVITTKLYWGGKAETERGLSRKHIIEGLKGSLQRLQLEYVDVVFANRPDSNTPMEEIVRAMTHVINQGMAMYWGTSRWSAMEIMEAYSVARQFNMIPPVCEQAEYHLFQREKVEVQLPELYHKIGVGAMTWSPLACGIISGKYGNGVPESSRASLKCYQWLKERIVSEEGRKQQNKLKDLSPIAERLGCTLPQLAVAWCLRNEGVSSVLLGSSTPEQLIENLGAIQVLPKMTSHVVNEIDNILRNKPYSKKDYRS

The term melting point denotes the temperature, or range, at which the solid turns liquid. On to `CC1(C)CC(=O)C(C(=S)Nc2ccc(Cl)c(Cl)c2)C(=O)C1` [Example 3, N-(3,4-dichlorophenyl)-4,4-dimethyl-2,6-dioxocyclohexanecarbothioamide], for which the melting point was 113 to 116 °C. As for `CC1(C)CC(=O)C(C(=S)Nc2ccc(Cl)c(C(F)(F)F)c2)C(=O)C1` [Example 4, N-[4-chloro-3-(trifluoromethyl)phenyl]-4,4-dimethyl-2,6-dioxocyclohexane-carbothioamide], the melting point was in the range of 101 to 102 °C. Besides, the activation at 300 µM in data set [1] worked out at 9%. For `CC1(C)CC(=O)C(C(=O)Nc2ccc(Cl)c(C(F)(F)F)c2)C(=O)C1` [Example 5, N-[4-chloro-3-(trifluoromethyl)phenyl]-4,4-dimethyl-2,6-dioxocyclohexanecarboxamide], the activation at 50 µM in data set [1] stood at 16%. As to `CC1(C)CC(=O)C(C(=O)Nc2ccccc2[N+](=O)[O-])C(=O)C1` [Example 6, 4,4-dimethyl-N-(2-nitrophenyl)-2,6-dioxocyclohexanecarboxamide], the activation at 100 µM in data set [1] was determined as 58%. The same measure, in the same setting: the same measure for `CC1(C)CC(=O)C(C(=O)Nc2ccc(Cl)cc2C(F)(F)F)C(=O)C1` [Example 7, N-[4-chloro-2-(trifluoromethyl)phenyl]-4,4-dimethyl-2,6-dioxocyclohexanecarboxamide]: 45%. The compound `CC(C)C1CC(=O)C(C(=O)Nc2ccc(Cl)c(Cl)c2)C(=O)C1` (stereo not drawn) [Example 10, N-(3,4-dichlorophenyl)-4-isopropyl-2,6-dioxocyclohexanecarboxamide] came in with a melting point of 138 °C. Further, the activation at 50 µM in data set [1] came out at 38%.

In turn, `O=C1CSCC(=O)C1C(=O)Nc1ccc(Cl)c(C(F)(F)F)c1` [Example 11, N-[4-chloro-3-(trifluoromethyl)phenyl]-3,5-dioxotetrahydro-2H-thiopyran-4-carboxamide] gave a melting point of 108 to 110 °C. Further, the activation at 50 µM in data set [1] worked out at 106%. Turning to `CC1(C)CC(=O)C(C(=O)Nc2ccc([N+](=O)[O-])cc2)C(=O)C1` [Example 12, 4,4-dimethyl-N-(4-nitrophenyl)-2,6-dioxocyclohexanecarboxamide], the activation at 100 µM in data set [1] came to 104%.

`CCC1(C)CC(=O)C(C(=O)Nc2cccc(C(F)(F)F)c2)C(=O)C1` (stereo not drawn) [Example 13, N-(3-trifluoromethylphenyl)-4-ethyl-4-methyl-2,6-dioxocyclohexanecarboxamide] yielded a melting point of 81 to 82 °C. Besides, the activation at 50 µM in data set [1] is 9%. As for `CCC1(C)CC(=O)C(C(=O)Nc2ccc(Cl)c(C(F)(F)F)c2)C(=O)C1` (stereo not drawn) [Example 14, N-(4-chloro-3-trifluoromethylphenyl)-4-ethyl-4-methyl-2,6-dioxocyclohexanecarboxamide], the melting point lay in the range of 87 to 88 °C. Besides, in data set [1], the activation at 50 µM amounted to 98%. For `CCC1(C)CC(=O)C(C(=O)Nc2ccc(Cl)c(Cl)c2)C(=O)C1` (stereo not drawn) [Example 15, N-(3,4-dichlorophenyl)-4-ethyl-4-methyl-2,6-dioxocyclohexanecarboxamide], the melting point lay in the range of 74 to 75 °C. In data set [1], the activation at 50 µM was 64%. For `CCC1(C)CC(=O)C(C(=O)Nc2ccc(F)c(Cl)c2)C(=O)C1` (stereo not drawn) [Example 16, N-(3-chloro-4-fluororphenyl)-4-ethyl-4-methyl-2,6-dioxocyclohexanecarboxamide], in that order: 91 to 92 °C and 18%. For `CCC1(C)CC(=O)C(C(=O)Nc2ccc(C(F)(F)F)cc2)C(=O)C1` (stereo not drawn) [Example 17, N-(4-trifluoromethylphenyl)-4-ethyl-4-methyl-2,6-dioxocyclohexanecarboxamide], in that order: 99 to 100 °C and 105%. For `CCC1(C)CC(=O)C(C(=O)Nc2cc(C(F)(F)F)cc(C(F)(F)F)c2)C(=O)C1` (stereo not drawn) [Example 18, N-(3,5-bis-trifluoromethylphenyl)-4-ethyl-4-methyl-2,6-dioxocyclohexanecarboxamide], in that order: 72 to 73 °C and 106%. Compound `CC1(C)CC(=O)C(C(=O)Nc2ccc(Cl)c(C(F)(F)F)c2)C(=O)O1` (stereo not drawn) [Example 19, N-[4-chloro-3-(trifluoromethyl)phenyl]-6,6-dimethyl-2,4-dioxotetrahydro-2H-pyran-3-carboxamide] registered a melting point of 156 to 156.4 °C. In addition, the activation at 50 µM in data set [1] stood at 68%. Consider `CC1(C)CC(=O)C(C(=O)Nc2ccc(C(F)(F)F)cc2)C(=O)O1` (stereo not drawn) [Example 20, N-[4-(trifluoromethyl)phenyl]-6,6-dimethyl-2,4-dioxotetrahydro-2H-pyran-3-carboxamide], for which the melting point fell in the range of 175.9 to 176.4 °C. Moreover, the activation at 50 µM in data set [1] is 17%. In the same order, the values of `CC1(C)CC(=O)C(C(=O)Nc2cccc(C(F)(F)F)c2)C(=O)O1` (stereo not drawn) [Example 21, N-[3-(trifluoromethyl)phenyl]-6,6-dimethyl-2,4-dioxotetrahydro-2H-pyran-3-carboxamide] are 149.6 to 150.1 °C and 13%.

In turn, `CC1(C)CC(=O)C(C(=O)Nc2cccc([N+](=O)[O-])c2)C(=O)O1` (stereo not drawn) [Example 22, N-(3-nitrophenyl)-6,6-dimethyl-2,4-dioxotetrahydro-2H-pyran-3-carboxamide] displayed a melting point of 138.4 to 139.6 °C. Further, in data set [1], the activation at 50 µM worked out at 10%.

In the case of `CC1(C)CC(=O)C(C(=O)Nc2ccc(Cl)c(Cl)c2)C(=O)O1` (stereo not drawn) [Example 23, N-(3,4-dichlorophenyl)-6,6-dimethyl-2,4-dioxotetrahydro-2H-pyran-3-carboxamide], the melting point lay within 212 to 215 °C. In addition, the activation at 50 µM in data set [1] came to 22%. Consider `CC1(C)COC(=O)C(C(=O)Nc2cccc(C(F)(F)F)c2)C1=O` (stereo not drawn) [Example 24, N-[3-(trifluoromethyl)phenyl]-5,5-dimethyl-2,4-dioxotetrahydro-2H-pyran-3-carboxamide], for which, in data set [1], the activation at 50 µM was 5%. The same measure, in the same setting: the figure for `CC1(C)COC(=O)C(C(=O)Nc2ccc(C(F)(F)F)cc2)C1=O` (stereo not drawn) [Example 25, N-[4-(trifluoromethyl)phenyl]-5,5-dimethyl-2,4-dioxotetrahydro-2H-pyran-3-carboxamide] is 10%. The compound `CC1(C)COC(=O)C(C(=O)Nc2ccc(Cl)c(C(F)(F)F)c2)C1=O` (stereo not drawn) [Example 26, N-[4-chloro-3-(trifluoromethyl)phenyl]-5,5-dimethyl-2,4-dioxotetrahydro-2H-pyran-3-carboxamide] displayed a melting point of 144 to 145 °C. In addition, the activation at 50 µM in data set [1] was found to be 173%. In turn, `CC1(C)CC(=O)C(C(=O)Nc2ccc(C(F)(F)F)cc2)C(=O)C1F` (stereo not drawn) [Example 27, 3-Fluoro-4,4-dimethyl-2,6-dioxo-cyclohexanecarboxylic acid(4-trifluoromethyl-phenyl)-amide] registered a melting point of 129 °C. In data set [1], the activation at 50 µM is 191%. As for `CC1(C)CC(=O)C(C(=O)Nc2cc(Cl)cc(Cl)c2)C(=O)C1F` (stereo not drawn) [Example 28, 3-Fluoro-4,4-dimethyl-2,6-dioxo-cyclohexanecarboxylic acid(3,5-dichloro-phenyl)-amide], the activation at 50 µM in data set [1] came to 279%. On the same count and under the same terms, the figure for `CC1(C)CC(=O)C(C(=O)Nc2cccc(C(F)(F)F)c2)C(=O)C1c1ccccc1` (stereo not drawn) [Example 30, 4,4-Dimethyl-2,6-dioxo-3-phenyl-cyclohexanecarboxylic acid(3-trifluoromethyl-phenyl)-amide] is 8%; for `CCOC(=O)C1C(=O)C(C(=O)Nc2cccc(C(F)(F)F)c2)C(=O)C2CCCCC21` (stereo not drawn) [Example 31, 2,4-Dioxo-3-(3-trifluoromethyl-phenylcarbamoyl)-decahydro-naphthalene-1-carboxylic acid ethyl ester] it is 227%. As for `CC1(c2ccccc2)CCC(=O)C(C(=O)Nc2cccc(C(F)(F)F)c2)C1=O` (stereo not drawn) [Example 32, 3-Methyl-2,6-dioxo-3-phenyl-cyclohexanecarboxylic acid(3-trifluoromethyl-phenyl)-amide], the activation at 50 µM in data set [1] is 6%.

In the case of `COCC1C(=O)C(C(=O)Nc2cccc(C(F)(F)F)c2)C(=O)CC1(C)C` (stereo not drawn) [Example 33, 3-Methoxymethyl-4,4-dimethyl-2,6-dioxo-cyclohexanecarboxylic acid (3-trifluoromethyl-phenyl)-amide], the activation at 50 µM in data set [1] was 1%. As to `O=C1OC2(CCCC2)OC(=O)C1C(=S)Nc1ccc(Cl)c(C(F)(F)F)c1` [Example 34, 7,9-Dioxo-6,10-dioxa-spiro[4.5]decane-8-carbothioic acid(4-chloro-3-trifluoromethyl-phenyl)-amide], in data set [1], the activation at 300 µM was 95%.
